Assay [1] deals with Arabidopsis Col-0 seedlings (primary root). In words: Root growth assay, wild type (Col-0). The settings on record: 50 nM peptide, 9-day-old seedlings, primary root length, n ≥ 12. The class given is in vivo, Arabidopsis thaliana. The procedure:
Plant tissue culture, plant transformation, and common molecular biology procedures such as genomic DNA isolation, genotyping, sequencing, and peptide or inhibitor treatments were performed according to standard procedures as previously described 9, 19, 44, 65.
All mutant and transgenic lines were in the Arabidopsis Columbia‐0 (Col‐0) background. The following previously described mutant alleles were used throughout: brx‐2, bam3‐2, brx‐2 bam3, clv2‐1, serk1‐1 and serk1‐3, serk2‐1, serk3‐1, serk4‐1, serk5‐1 9, 47, 59, 66, 67, 68. The crn loss‐of‐function mutant allele (crn‐10) carries a single nucleotide insertion in front of the 7th codon, which leads to a frameshift and three subsequent premature stop codons after amino acid 10 52.

The target of assay [2] is T1, BAM3 extracellular (LRR) domain (30–651) (Arabidopsis thaliana, UniProt O65440).
T1 construct: azurocidin signal peptide (N); made in house; host or cells: Trichoplusia ni Tnao38 insect cells (baculovirus, secreted)
Put plainly: biochemical. The class given is binding.
Experimental: Isothermal titration calorimetry assays were run on a Nano ITC (1 ml standard cell; 250 μl syringe; TA Instruments) at 25°C in 20 mM sodium citrate pH 5 and 150 mM NaCl for all ITCs with BAM3 and 10 mM Bis–Tris pH 6 and 100 mM NaCl for the ITC with PXY. […] For each experiment, 10 μl was repetitively injected into the cell in 150 s time intervals. The measured heat rates for the BAM3‐ECD vs. CLE45, BAM3^QYY vs. CLE45, BAM3‐ECD vs. Y‐CLE45, BAM3‐ECD vs. CLV3, BAM3‐ECD vs. Y‐CLV3, and PXY‐ECD vs. CLE41/44 were corrected by subtracting the heat rates measured for injecting CLE45, Y‐CLE45, CLV3, Y‐CLV3, or CLE41/44 into the ITC buffer, respectively. The data for the BAM3‐ECD + CLE45 vs. SERK1‐ECD measurement was corrected by subtracting heat rates acquired by injecting SERK1‐ECD into a cell containing CLE45. Data analyses and modeling were carried out using the software supplied by the manufacturer (NanoAnalyze, version 3.5).

Assay [3] concerns the target T2, PXY extracellular domain (PXY-ECD) (Arabidopsis thaliana, UniProt Q9FII5 30-647).
T2 chain: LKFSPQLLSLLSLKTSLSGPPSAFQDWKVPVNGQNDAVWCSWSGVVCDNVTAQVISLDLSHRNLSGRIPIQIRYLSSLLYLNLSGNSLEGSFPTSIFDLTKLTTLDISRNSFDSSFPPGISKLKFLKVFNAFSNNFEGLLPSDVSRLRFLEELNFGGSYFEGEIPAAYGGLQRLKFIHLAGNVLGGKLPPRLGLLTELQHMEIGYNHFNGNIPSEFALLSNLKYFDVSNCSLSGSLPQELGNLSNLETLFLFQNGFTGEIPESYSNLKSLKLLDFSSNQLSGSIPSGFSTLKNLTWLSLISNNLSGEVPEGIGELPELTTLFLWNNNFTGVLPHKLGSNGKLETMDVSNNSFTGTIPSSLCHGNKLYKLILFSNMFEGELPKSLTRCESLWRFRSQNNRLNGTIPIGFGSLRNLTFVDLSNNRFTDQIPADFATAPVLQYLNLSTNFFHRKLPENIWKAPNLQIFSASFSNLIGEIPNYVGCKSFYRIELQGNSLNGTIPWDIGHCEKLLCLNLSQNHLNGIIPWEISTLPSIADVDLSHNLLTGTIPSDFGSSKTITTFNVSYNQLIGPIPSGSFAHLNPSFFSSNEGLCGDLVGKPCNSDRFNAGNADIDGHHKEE
In words: ITC. On the technique in general: Isothermal titration calorimetry measures the heat released or taken up as one component is titrated into another.

The target of assay [4] is T3, BAM3 extracellular domain (BAM3-ECD) (Arabidopsis thaliana, UniProt O65440 30-651).
T3 chain: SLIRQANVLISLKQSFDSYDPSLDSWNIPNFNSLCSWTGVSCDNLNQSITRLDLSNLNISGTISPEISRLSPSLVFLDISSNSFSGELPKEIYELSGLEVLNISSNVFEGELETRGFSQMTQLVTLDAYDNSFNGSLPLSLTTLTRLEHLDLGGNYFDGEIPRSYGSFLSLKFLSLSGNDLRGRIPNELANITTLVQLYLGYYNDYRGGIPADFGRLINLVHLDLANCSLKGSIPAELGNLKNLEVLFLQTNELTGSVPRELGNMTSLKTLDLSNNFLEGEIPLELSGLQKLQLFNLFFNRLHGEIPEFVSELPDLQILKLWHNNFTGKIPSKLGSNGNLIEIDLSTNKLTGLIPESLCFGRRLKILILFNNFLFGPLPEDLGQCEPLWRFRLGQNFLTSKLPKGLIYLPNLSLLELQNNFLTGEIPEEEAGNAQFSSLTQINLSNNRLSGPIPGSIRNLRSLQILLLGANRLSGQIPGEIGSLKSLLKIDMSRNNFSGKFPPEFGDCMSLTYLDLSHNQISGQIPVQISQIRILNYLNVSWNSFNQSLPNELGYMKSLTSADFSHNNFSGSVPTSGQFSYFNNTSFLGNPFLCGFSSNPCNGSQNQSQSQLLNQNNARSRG
In words: ITC.

Assay [5] concerns the target T4, BAM3 extracellular domain (BAM3-ECD) (Arabidopsis thaliana, UniProt O65440 30-651).
T4 construct: Cloned in a modified pFastBac1 with an N-terminal azurocidin signal peptide for secretion; MALDI-TOF mass 94,586 Da; also called BAM3 LRR domain; BAM3 ectodomain; source: Trichoplusia ni Tnao38 cells, secreted, purified (Ni2+, StrepII, size-exclusion chromatography)
T4 sequence (looked up): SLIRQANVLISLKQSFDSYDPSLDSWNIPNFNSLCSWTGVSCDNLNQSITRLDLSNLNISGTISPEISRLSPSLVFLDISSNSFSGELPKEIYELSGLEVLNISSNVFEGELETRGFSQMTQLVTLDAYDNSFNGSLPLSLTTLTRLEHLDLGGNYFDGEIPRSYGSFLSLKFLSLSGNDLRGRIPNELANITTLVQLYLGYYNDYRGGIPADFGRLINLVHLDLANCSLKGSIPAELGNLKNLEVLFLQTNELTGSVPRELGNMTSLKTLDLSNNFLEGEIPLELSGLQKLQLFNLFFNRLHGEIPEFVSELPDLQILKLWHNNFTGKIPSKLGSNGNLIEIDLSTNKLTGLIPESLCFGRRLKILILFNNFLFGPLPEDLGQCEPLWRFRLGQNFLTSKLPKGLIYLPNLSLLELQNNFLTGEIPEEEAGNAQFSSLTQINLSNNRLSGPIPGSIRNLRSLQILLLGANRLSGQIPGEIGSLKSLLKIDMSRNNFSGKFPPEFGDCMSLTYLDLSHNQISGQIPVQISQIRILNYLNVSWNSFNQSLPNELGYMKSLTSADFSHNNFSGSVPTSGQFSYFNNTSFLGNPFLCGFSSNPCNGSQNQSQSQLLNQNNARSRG
In words: ITC; peptide titrated (10 μl injections, 150 s intervals) into the BAM3 ectodomain in the cell; Nano ITC, 25°C, 20 mM sodium citrate pH 5, 150 mM NaCl. To be noted: both partners purified.

The target of assay [6] is T5, BAM3^QYY extracellular domain (BAM3^QYY-ECD) (Arabidopsis thaliana, UniProt O65440 30-651, Q226A | Y228A | Y231A).
T5 sequence: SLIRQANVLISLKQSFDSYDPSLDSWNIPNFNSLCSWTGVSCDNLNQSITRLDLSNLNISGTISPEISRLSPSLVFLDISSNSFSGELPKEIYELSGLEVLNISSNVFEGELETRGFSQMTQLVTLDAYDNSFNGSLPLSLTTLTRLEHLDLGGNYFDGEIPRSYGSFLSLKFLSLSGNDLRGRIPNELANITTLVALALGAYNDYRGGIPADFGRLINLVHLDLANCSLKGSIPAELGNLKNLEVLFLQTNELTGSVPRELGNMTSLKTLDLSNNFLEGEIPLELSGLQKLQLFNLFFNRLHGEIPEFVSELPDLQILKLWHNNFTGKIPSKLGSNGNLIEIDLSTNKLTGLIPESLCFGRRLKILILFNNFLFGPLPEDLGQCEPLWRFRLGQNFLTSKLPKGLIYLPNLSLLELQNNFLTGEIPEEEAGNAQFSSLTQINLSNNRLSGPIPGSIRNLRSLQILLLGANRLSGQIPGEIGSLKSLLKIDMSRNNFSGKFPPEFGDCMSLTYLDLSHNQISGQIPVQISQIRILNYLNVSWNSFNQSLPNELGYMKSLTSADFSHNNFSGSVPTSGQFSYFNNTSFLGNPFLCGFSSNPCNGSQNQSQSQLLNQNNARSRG
Put plainly: ITC.

In assay [7] the target is T6, BAM3^QYY extracellular domain (BAM3^QYY-ECD) (Arabidopsis thaliana, UniProt O65440 30-651, Q226A | Y228A | Y231A).
T6 construct: Same construct as m1 (azurocidin signal peptide for secretion) with three point mutations; also called mutant BAM3^QYY; source: Trichoplusia ni Tnao38 cells, secreted, purified (Ni2+, StrepII, size-exclusion chromatography)
T6 sequence (looked up): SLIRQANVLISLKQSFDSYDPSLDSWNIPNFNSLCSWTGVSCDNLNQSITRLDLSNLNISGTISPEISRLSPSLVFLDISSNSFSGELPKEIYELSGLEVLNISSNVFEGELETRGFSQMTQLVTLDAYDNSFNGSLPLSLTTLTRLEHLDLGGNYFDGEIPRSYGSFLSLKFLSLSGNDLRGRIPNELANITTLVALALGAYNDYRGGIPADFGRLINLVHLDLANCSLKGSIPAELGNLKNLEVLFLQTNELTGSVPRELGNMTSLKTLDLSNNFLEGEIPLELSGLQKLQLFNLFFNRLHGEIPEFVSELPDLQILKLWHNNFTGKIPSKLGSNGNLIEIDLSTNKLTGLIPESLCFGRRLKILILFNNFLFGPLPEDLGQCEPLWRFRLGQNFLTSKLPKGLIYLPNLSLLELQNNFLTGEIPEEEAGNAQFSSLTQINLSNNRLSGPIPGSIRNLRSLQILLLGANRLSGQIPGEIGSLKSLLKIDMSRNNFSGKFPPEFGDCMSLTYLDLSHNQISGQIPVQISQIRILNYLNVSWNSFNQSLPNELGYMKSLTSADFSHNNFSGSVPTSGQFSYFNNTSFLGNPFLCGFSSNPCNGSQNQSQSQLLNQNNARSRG
Put plainly: ITC; peptide titrated (10 μl injections, 150 s intervals) into the BAM3 ectodomain in the cell; Nano ITC, 25°C, 20 mM sodium citrate pH 5, 150 mM NaCl. The settings on record: both partners purified.

As usually defined, the Kd is the concentration at which binding is half-saturated. Low readings indicate a tighter complex, high ones a looser complex. As usually defined, the stoichiometry N is a count of units in the complex or per binding partner.

Where no end group is shown, it is not given here. [ ]: non-standard residue; d: D form. Hyp = O=C(O)[C@@H]1C[C@@H](O)CN1

Regarding RQIPTGPDPLHN [CLE18, CLE18: …], in assay [1], the “impact on root growth” value is “significant, reproducible impact on root growth”.

For RQVPTGSDPLHH [CLE40, CLE40: …], the “impact on root growth” value in assay [1] is recorded as “significant, reproducible impact on root growth”.

In the case of RRVPTGPNPLHH [CLE8, CLE8: …], in assay [1], the “impact on root growth” value is on record as “significant, reproducible impact on root growth”.

Regarding RRVRRGSDPIHN [CLE45], in assay [2], the affinity, expressed as Kd, was 116 ± 36 nM.

On to RSIPTGPNPLHN [CLE21, CLE21: …], for which, in assay [1], the “impact on root growth” value was “significant, reproducible impact on root growth”.

For the molecule RTVPSGPDPLHH [CLV3, CLV3: …], the “impact on root growth” value in assay [1] is given as “significant, reproducible impact on root growth”. Further, the “N (stoichiometry)” value in assay [2] (ITC, 25°C, 20 mM sodium citrate pH 5, 150 mM NaCl, ± fitting errors (95% confidence interval), n.d.: not detectable) was 0.978 +/- 0.23. For the same molecule, the “reduction in binding affinity of CLV3 vs. CLE45 (fold)” value in assay [2] (ITC, Fig EV1C vs. CLE45) stood at 70 fold.

As for RVVPSGPNPLHH [CLE11, CLE11: …], in assay [1], the “impact on root growth” value is on record as “significant, reproducible impact on root growth”.

B1: CLE41/44 peptide (ITC, unmodified as printed) (peptide)
peptide: HEVPSGPNPISN
notes: CLE41/44 (TDIF), mature 12-residue CLE peptide of Arabidopsis, the same from CLE41 and CLE44; The same peptide is also encoded by CLE44; also called TDIF; source: synthetic peptide (Peptide Specialty Laboratories, Heidelberg)
B1: in assay [3], the Kd was 12.2 nM.

Turning to YRRVRRGSDPIHN [N-terminally tyrosine-modified CLE45 peptide (Y-CLE45)], the Kd in assay [4] turned out to be 12700 nM.

B2: CLV3 peptide (ITC) (peptide)
peptide: RTV[Hyp]SG[Hyp]DPLHHH
notes: CLAVATA3 (CLV3) mature CLE peptide of Arabidopsis, 13 residues as printed for the ITC; the ITC peptide is printed with three C-terminal histidines; source: synthetic peptide (Peptide Specialty Laboratories, Heidelberg)
With B2, the Kd in assay [4] is 8620 nM; in assay [5] it was ~10000 nM.

B3: CLE45 peptide (peptide)
peptide: RRVRRGSDPIHN
notes: CLE45, mature 12-residue CLE peptide of Arabidopsis; also called synthetic CLE45 peptide; source: synthetic peptide (Peptide Specialty Laboratories, Heidelberg)
In turn, B3 displayed a dissociation constant (Kd) in assay [6] of 1110 nM. Also, in assay [5], the Kd was ~120 nM and the “stoichiometry N” value was found to be 1. The “fold weaker than with the wild-type LRR domain” value in assay [7] was ~8 fold.

The values above are taken from article PMC5538625, “Perception of root‐active CLE peptides requires CORYNE function in the phloem vasculature” (EMBO Reports, 2017).
